Results as given in US12606528B2, “Methods and materials for inhibiting NF-kB activity” (University of Pittsburgh - Of the Commonwealth System of …, priority 2019, dated 2026).
Where two headings read alike, the source gives them in different places.

Tests used:
TNF release = assay: TNF assay: TNF release from LPS-stimulated human PBMCs (TNF ELISA); format: cell-based; settings: PBMC, read-out: IC50 (TNF assay)
Outline: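 Human PBMCs at 10k/well pretreated with compound dilutions 2 h, then stimulated with LPS (10 ng/mL) for 18 h. TNF in supernatants quantified by ELISA; IC50 for inhibition of TNF release fitted from concentration–response.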

NF-κB = NF-κB assay: THP1-NF-κB-LUC cells, LPS-stimulated secreted luciferase; format: cell-based; settings: THP1-NF-κB-LUC cells, read-out: IC50 (NF-κB assay)
Outline: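 THP1-NF-κB-LUC cells (25k/well) were pretreated with compounds for 2 h, then stimulated with LPS (10 ng/mL) for 18 h. Secreted luciferase was measured and normalized to vehicle, and IC50 was fitted from the concentration series.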

[1] = LPS-stimulated human PBMCs, TNF ELISA
[2] = human PBMCs, compounds 2 hours before LPS (10 ng/ml) for 18 hours, supernatant TNF ELISA
[3] = compounds 2 hours before LPS (10 ng/mL) for 18 hours, secreted luciferase

Structure (SMILES)	IC50 (TNF release; [1])	IC50 (NF-κB; LPS-stimulated)	IC50 (TNF release; [2])	IC50 (NF-κB; [3])
CS(=O)(=O)c1[nH]nc(N)c1S(=O)(=O)c1ccccc1 [BC19339]	> 10000 nM	> 10000 nM	–	–
Cc1nc2c(S(=O)(=O)c3ccccc3)c([S+](C)[O-])nn2c(C)c1C (centres unmarked) [BC19340]	> 10000 nM	> 10000 nM	–	–
CC1Oc2cc(S(=O)(=O)Nc3ccc(OC(F)(F)F)cc3)c(Cl)cc2NC1=O (centres unmarked) [BC19354]	–	–	> 10000 nM	< 100 nM
CC1Oc2cc(S(=O)(=O)NCc3ccc(F)cc3F)c(Br)cc2NC1=O (centres unmarked) [BC19356]	–	–	> 10000 nM	1000 to 10000 nM
CC1Oc2cc(S(=O)(=O)NCc3ccc(OC(F)(F)F)cc3)c(Br)cc2NC1=O (centres unmarked) [BC19357]	–	–	> 10000 nM	> 10000 nM
CC1Oc2cc(S(=O)(=O)NCc3ccc(C(F)(F)F)cc3)c(Br)cc2NC1=O (centres unmarked) [BC19358]	–	–	> 10000 nM	> 10000 nM
CC1Oc2cc(S(=O)(=O)NCCc3ccc(OC(F)(F)F)cc3)c(Br)cc2NC1=O (centres unmarked) [BC19359]	–	–	> 10000 nM	> 10000 nM
CC1Oc2cc(S(=O)(=O)NC3CCC(O)CC3)c(Br)cc2NC1=O (centres unmarked) [BC19360]	–	–	> 10000 nM	> 10000 nM
CC1Oc2cc(S(=O)(=O)NC3CCC(C(C)(C)C)CC3)c(Br)cc2NC1=O (centres unmarked) [BC19361]	–	–	> 10000 nM	> 10000 nM
CC1Oc2c(cc(Br)cc2S(=O)(=O)NCc2ccc(F)cc2F)NC1=O (centres unmarked) [BC19362]	–	–	> 10000 nM	100 to 1000 nM
CC1Oc2c(cc(Br)cc2S(=O)(=O)NCc2ccc(OC(F)(F)F)cc2)NC1=O (centres unmarked) [BC19363]	–	–	> 10000 nM	< 100 nM
CC1Oc2c(cc(Br)cc2S(=O)(=O)NCCc2ccc(OC(F)(F)F)cc2)NC1=O (centres unmarked) [BC19364]	–	–	> 10000 nM	> 10000 nM
CC1Oc2c(cc(Br)cc2S(=O)(=O)NCc2ccc(C(F)(F)F)cc2)NC1=O (centres unmarked) [BC19365]	–	–	> 10000 nM	1000 to 10000 nM
CC1Oc2c(cc(Br)cc2S(=O)(=O)NC2CCC(O)CC2)NC1=O (centres unmarked) [BC19366]	–	–	> 10000 nM	> 10000 nM

Results, then the compound that gave them:

IC50 (TNF release; [1])	IC50 (NF-κB; LPS-stimulated)	IC50 (TNF release; [2])	IC50 (NF-κB; [3])	Structure (SMILES)
> 10000 nM	> 10000 nM	–	–	Cc1cc(O)n2nc([S+](C)[O-])c(S(=O)(=O)c3ccccc3)c2n1 (centres unmarked) [BC19341]
< 100 nM	< 100 nM	–	–	C[S+]([O-])c1oc(-c2cccc(F)c2)nc1S(=O)(=O)c1ccc(Cl)cc1 (centres unmarked) [BC19342]
< 100 nM	1000 to 10000 nM	–	–	CS(=O)(=O)c1oc(-c2cccc(F)c2)nc1S(=O)(=O)c1ccc(Cl)cc1 [BC19343]
100 to 1000 nM	100 to 1000 nM	–	–	CCC[S+]([O-])c1oc(-c2cccc(F)c2)nc1S(=O)(=O)c1ccc(Cl)cc1 (centres unmarked) [BC19344]
100 to 1000 nM	100 to 1000 nM	–	–	CCCS(=O)(=O)c1oc(-c2cccc(F)c2)nc1S(=O)(=O)c1ccc(Cl)cc1 [BC19345]
< 100 nM	< 100 nM	–	–	CC(C)[S+]([O-])c1oc(-c2cccc(F)c2)nc1S(=O)(=O)c1ccc(Cl)cc1 (centres unmarked) [BC19346]
< 100 nM	< 100 nM	–	–	CC(C)C[S+]([O-])c1oc(-c2cccc(F)c2)nc1S(=O)(=O)c1ccc(Cl)cc1 (centres unmarked) [BC19347]
100 to 1000 nM	< 100 nM	–	–	CC(C)CS(=O)(=O)c1oc(-c2cccc(F)c2)nc1S(=O)(=O)c1ccc(Cl)cc1 [BC19348]
< 100 nM	100 to 1000 nM	–	–	O=S(=O)(c1ccc(Cl)cc1)c1nc(-c2cccc(F)c2)oc1[S+]([O-])CC1CC1 (centres unmarked) [BC19349]
1000 to 10000 nM	1000 to 10000 nM	–	–	O=S(=O)(CC1CC1)c1oc(-c2cccc(F)c2)nc1S(=O)(=O)c1ccc(Cl)cc1 [BC19350]
< 100 nM	100 to 1000 nM	–	–	COCC[S+]([O-])c1oc(-c2cccc(F)c2)nc1S(=O)(=O)c1ccc(Cl)cc1 (centres unmarked) [BC19351]
< 100 nM	100 to 1000 nM	–	–	COCCS(=O)(=O)c1oc(-c2cccc(F)c2)nc1S(=O)(=O)c1ccc(Cl)cc1 [BC19352]
100 to 1000 nM	100 to 1000 nM	–	–	O=S(=O)(c1ccc(Cl)cc1)c1nc(-c2cccc(F)c2)oc1[S+]([O-])C1CCCCC1 (centres unmarked) [BC19353]
–	–	> 10000 nM	< 100 nM	CCOc1ccc(NS(=O)(=O)c2cc(Cl)cc3c2OC(C)C(=O)N3)cc1 (centres unmarked) [BC19355]
